# Measurements reported in US11667645B2, “Granzyme B directed imaging and therapy” (CytoSite Biopharma Inc., priority 2018, dated 2023).
# pIC50: −log10 of the molar value.
# Molecular target: Granzyme B (human lymphocytes) (Homo sapiens (Human), UniProt P10144)
# Assay: human Granzyme B biochemical assay
# Settings: Granzyme B (human lymphocytes) 5 nM, substrate Ac-IETD-AFC 200 μM, Cpd incubation with enzyme 30 mins, 22° C., read time 60 mins; read-out: IC50
# Method in brief: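 Fluorogenic Ac-IETD-AFC cleavage (Ex 400/Em 505 nm) read after 60 min at 22 °C, following 30 min, 22 °C enzyme–compound pre-incubation. Working stocks: enzyme 10 nM in 0.1% BSA buffer, substrate 800 µM, compound 8 points, 3.16-fold from 40 µM. Controls set 0% (DMSO) and 100% (standard inhibitor) inhibition; IC50 fitted.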
# Granzyme B (human lymphocytes), sequence (P10144 21-247): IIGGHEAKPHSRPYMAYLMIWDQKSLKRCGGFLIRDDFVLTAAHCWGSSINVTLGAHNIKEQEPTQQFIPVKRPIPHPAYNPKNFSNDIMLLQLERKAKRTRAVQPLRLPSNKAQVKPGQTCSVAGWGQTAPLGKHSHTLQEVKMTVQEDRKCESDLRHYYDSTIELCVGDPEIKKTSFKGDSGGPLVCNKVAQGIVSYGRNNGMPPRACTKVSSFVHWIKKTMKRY
row,SMILES,pIC50
1,"CC[C@H](C)[C@H](NC(=O)COCCF)C(=O)N[C@H]1CCc2cccc3c2N(C1=O)[C@H](C(=O)NCc1cccs1)C3 [Compound C106, (2S,5S)-5-{(2S,3S)-2-[2-(2-Fluoro-ethoxy)-acetylamino]-3-methyl-pentanoylamino}-4-oxo-1,2,4,5,6,7-hexahydro-azepino[3,2,1-hi]indole-2-carboxylic acid (thiophen-2-ylmethyl)-amide]",< 5.30
2,"CC[C@H](C)[C@H](NC(=O)COCCF)C(=O)N[C@H]1CCc2cccc3c2N(C1=O)[C@H](C(=O)NCc1cnco1)C3 [Compound C111, (2S,5S)-5-{(2S,3S)-2-[2-(2-Fluoro-ethoxy)-acetylamino]-3-methyl-pentanoylamino}-4-oxo-1,2,4,5,6,7-hexahydro-azepino[3,2,1-hi]indole-2-carboxylic acid (oxazol-5-ylmethyl)-amide]",< 5.30
3,"COC(=O)C[C@H](NC(=O)[C@@H]1Cc2cccc3c2N1C(=O)[C@@H](NC(=O)[C@@H](NC(C)=O)C(C)C)CC3)C(=O)OC [Compound C093, (S)-2-{[(2S,5S)-5-((S)-2-Acetylamino-3-methyl-butyrylamino)-4-oxo-1,2,4,5,6,7-hexahydro-azepino[3,2,1-hi]indole-2-carbonyl]-amino}-succinic acid dimethyl ester]",< 5.30
4,"O=C(N[C@@H](Cc1ccc(O)cc1)C(=O)N[C@H]1CCc2cccc3c2N(C1=O)[C@H](C(=O)NCc1c[nH]nn1)C3)c1ccccc1 [Compound C042, (2S,5S)-5-[(S)-2-Benzoylamino-3-(4-hydroxy-phenyl)-propionylamino]-4-oxo,2,4,5,6,7-hexahydro-azepino[3,2,1-hi]indole-2-carboxylic acid (1H-[1,2,3]triazol-4-ylmethyl)-amide]",< 5.30
5,"CC[C@H](C)[C@H](NC(=O)COCCF)C(=O)N[C@H]1CCc2cccc3c2N(C1=O)[C@H](C(=O)NCc1ccccc1Cl)C3 [Compound C130, (2S,5S)-5-{(2S,3S)-2-[2-(2-Fluoro-ethoxy)-acetylamino]-3-methyl-pentanoylamino}-4-oxo-1,2,4,5,6,7-hexahydro-azepino[3,2,1-hi]indole-2-carboxylic acid 2-chloro-benzylamide]",< 5.30

# The next lines start with the values.
row,pIC50,SMILES
1,6.52 to 9.00,"CC[C@H](C)[C@H](NC(=O)c1ccc(OC)cc1)C(=O)N[C@H]1CCc2cccc3c2N(C1=O)[C@H](C(=O)NCc1c[nH]nn1)C3 [Compound C062, (2S,5S)-5-[(2S,3S)-2-(4-Methoxy-benzoylamino)-3-methyl-pentanoylamino]-4-oxo-1,2,4,5,6,7-hexahydro-azepino[3,2,1-hi]indole-2-carboxylic acid(1H-[1,2,3]triazol-4-ylmethyl)-amide]"
2,6.52 to 9.00,"CC(=O)N[C@H](C(=O)N[C@H]1COc2cccc3c2N(C1=O)[C@H](C(=O)NCc1c[nH]nn1)C3)C(C)C [Compound C101, (1S,8S)-8-((S)-2-Acetylamino-3-methyl-butyrylamino)-9-oxo-1,2,8,9-tetrahydro-7H-6-oxa-9a-aza-benzo[cd]azulene-1-carboxylic acid (1H-[1,2,3]triazol-4-ylmethyl)-amide]"
3,6.00 to 6.52,"CC(=O)N[C@H](C(=O)N[C@H]1CCc2cccc3c2N(C1=O)[C@H](C(=O)NCc1c[nH]nn1)C3)C1CC1 [Compound C081, (2S,5S)-5-((S)-2-Acetylamino-2-cyclopropyl-acetylamino)-4-oxo-1,2,4,5,6,7-hexahydro-azepino[3,2,1-hi]indole-2-carboxylic acid (1H-[1,2,3]triazol-4-ylmethyl)-amide]"
4,5.30 to 6.00,"CC(=O)N[C@@H](Cc1ccc(O)cc1)C(=O)N[C@H]1CCc2cccc3c2N(C1=O)[C@H](C(=O)NCc1c[nH]nn1)C3 [Compound C032, (2S,5S)-5-[(S)-2-Acetylamino-3-(4-hydroxy-phenyl)-propionylamino]-4-oxo-1,2,4,5,6,7-hexahydro-azepino[3,2,1-hi]indole-2-carboxylic acid(1H-[1,2,3]triazol-4-ylmethyl)amide]"
